Laboratory results reported in ChEMBL document CHEMBL1201862, “PubChem BioAssay data set” (2004).
Calls of active or inactive are those of the source.

Columns and labels:
[1] = molecular target: SWI/SNF-related matrix-associated actin-dependent regulator of chromatin subfamily A member 2 (Homo sapiens, UniProt P51531); assay: Luminescence-based cell-based high throughput dose response assay to identify activators of the function of SWI/SNF related, matrix associated, actin dependent regulator of chromatin, subfamily a, member 2 (SMARCA2, BRM).; assay type: functional
Sequence of SWI/SNF-related matrix-associated actin-dependent regulator of chromatin subfamily A member 2 (P51531 whole entry): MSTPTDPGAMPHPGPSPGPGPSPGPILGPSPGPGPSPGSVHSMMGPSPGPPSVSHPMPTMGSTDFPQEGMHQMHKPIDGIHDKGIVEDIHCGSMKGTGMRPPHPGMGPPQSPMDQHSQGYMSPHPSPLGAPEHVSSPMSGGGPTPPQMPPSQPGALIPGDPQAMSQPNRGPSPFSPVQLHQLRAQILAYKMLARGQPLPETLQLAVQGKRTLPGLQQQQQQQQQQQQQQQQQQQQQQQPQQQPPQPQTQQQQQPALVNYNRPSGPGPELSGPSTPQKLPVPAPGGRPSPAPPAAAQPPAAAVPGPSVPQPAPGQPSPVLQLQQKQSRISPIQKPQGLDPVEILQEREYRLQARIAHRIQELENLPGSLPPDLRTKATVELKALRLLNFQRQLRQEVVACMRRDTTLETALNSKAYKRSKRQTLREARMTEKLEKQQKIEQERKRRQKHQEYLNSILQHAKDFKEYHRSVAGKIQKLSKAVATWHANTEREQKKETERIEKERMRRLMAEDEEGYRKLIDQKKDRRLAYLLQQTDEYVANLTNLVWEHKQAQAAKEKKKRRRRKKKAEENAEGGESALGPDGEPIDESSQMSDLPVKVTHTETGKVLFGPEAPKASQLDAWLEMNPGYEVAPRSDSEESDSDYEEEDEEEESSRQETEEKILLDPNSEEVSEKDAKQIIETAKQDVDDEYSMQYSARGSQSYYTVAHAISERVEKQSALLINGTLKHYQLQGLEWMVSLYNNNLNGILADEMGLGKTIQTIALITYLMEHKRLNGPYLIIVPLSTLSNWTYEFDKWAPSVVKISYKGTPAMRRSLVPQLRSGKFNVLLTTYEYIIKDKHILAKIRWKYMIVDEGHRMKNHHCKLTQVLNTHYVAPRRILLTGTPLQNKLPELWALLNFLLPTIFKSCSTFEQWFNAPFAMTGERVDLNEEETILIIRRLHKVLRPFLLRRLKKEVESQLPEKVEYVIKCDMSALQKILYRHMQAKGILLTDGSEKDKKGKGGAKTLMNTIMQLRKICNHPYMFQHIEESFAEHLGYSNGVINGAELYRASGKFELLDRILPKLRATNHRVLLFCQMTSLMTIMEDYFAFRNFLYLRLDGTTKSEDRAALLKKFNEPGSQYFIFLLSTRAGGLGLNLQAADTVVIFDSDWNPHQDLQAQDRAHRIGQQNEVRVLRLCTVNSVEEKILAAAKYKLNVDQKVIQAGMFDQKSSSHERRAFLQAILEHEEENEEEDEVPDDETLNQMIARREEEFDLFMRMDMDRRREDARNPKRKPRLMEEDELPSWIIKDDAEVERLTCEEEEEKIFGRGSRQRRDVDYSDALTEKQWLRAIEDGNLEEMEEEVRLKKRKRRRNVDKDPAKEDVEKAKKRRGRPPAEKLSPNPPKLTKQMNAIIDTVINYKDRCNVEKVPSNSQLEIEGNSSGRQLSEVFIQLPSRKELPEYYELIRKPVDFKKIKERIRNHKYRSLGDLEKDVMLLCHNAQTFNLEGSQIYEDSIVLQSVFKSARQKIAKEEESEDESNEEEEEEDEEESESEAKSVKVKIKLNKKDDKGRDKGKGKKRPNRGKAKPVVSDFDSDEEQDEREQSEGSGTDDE

[2] = Counterscreen for activators of the function of SWI/SNF related, matrix associated, actin dependent regulator of chromatin, subfamily a, member 2 (SMARCA2, BRM): Luminescence-based cell-based high throughput dose response assay to identify non-selective compounds using the VP16 reporter assay.; assay type: functional
[3] = blockers of HIV-1 envelope-mediated cell-cell fusion – cherry-pick, dose response (AID 652057); assay type: functional, cell-based
[4] = viability loss in CEM21 cells – cell-based, CellTiter-Glo luminescence, cherry-picked, cytotoxicity control for viral fusion inhibitor project, dose response (AID 652042); assay type: functional;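 further: potency for signal decrease meaning cytotoxicity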
[5] = HIV-1 AD8 envelope cell-cell fusion blockers – cherry-pick, dose response (AID 652062); assay type: functional, cell-based;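 further: luciferase signal from cell-cell fusion driven by HIV-1 clade B AD8 Env; potency is for inhibitors of fusion seen as a drop in luminescence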
[6] = P. falciparum Dd2 growth inhibitors, dose response, SYBR Green, cherry-picked samples (AID 1159567); assay type: functional, cell-based
[7] = Luminescence Cell-Based Dose Response HTS to Identify Activators of Luciferase Translation or Activity in H4 […] Cells. [Related pubchem assays: 1829 (Project Summary), 1814 (Primary HTS)]; assay type: functional
[8] = test system: Streptococcus sp. 'group A'; assay: Streptococcus pyogenes SK(-)GAS viability under kanamycin – luminescence, BacTiterGlo, confirmation, counter-screen for streptokinase expression inhibitor project, dose response (AID 1900); assay type: functional, organism-based
H4 = assay: Luminescence Cell-Based Dose Response HTS to Identify Activators of 5'UTR Stem-Loop Driven Prion Protein mRNA Translation in H4 Neuroglioblastoma Cells. [Related pubchem assays: 1829 (Project Summary), 1814 (Primary HTS)]; assay type: functional; settings: Homo sapiens
Streptococcus = assay: GAS UMAA2166 growth inhibition – luminescence, BacTiterGlo, counter-screen for streptokinase expression inhibitor project, dose response (AID 1915); assay type: functional, organism-based;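 further: potency for reduction of bacterial viability or growth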
cells = assay type: functional
HeLa = assay: ATP-based viability loss in HeLa cells – cell-based, CellTiter-Glo luminescence, cherry-pick samples, cytotoxicity control for MITF activator project, dose response (AID 540259); assay type: functional; settings: Homo sapiens
Estrogen receptor = molecular target: T1, Estrogen receptor (Homo sapiens, UniProt P03372);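 further: potency for inhibiting coactivator peptide recruitment to the receptor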
T1 sequence (P03372 whole entry): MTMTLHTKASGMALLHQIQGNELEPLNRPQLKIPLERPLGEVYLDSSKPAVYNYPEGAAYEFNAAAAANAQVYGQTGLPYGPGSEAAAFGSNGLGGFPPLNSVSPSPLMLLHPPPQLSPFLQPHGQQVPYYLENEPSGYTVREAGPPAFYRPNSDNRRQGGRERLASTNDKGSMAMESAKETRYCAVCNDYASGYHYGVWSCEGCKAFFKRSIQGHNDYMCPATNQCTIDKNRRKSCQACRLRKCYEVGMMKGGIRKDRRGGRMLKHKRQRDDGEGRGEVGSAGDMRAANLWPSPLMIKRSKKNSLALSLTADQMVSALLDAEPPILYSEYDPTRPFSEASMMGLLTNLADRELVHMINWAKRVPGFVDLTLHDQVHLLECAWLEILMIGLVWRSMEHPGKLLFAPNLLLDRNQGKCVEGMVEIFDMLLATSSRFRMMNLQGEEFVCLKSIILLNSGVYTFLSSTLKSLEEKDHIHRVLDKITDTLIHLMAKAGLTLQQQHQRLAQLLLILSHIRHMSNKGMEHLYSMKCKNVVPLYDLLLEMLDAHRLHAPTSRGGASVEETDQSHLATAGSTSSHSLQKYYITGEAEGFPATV

[9] = molecular target: T2, Corticotropin-releasing factor receptor 2/Corticotropin-releasing factor-binding protein (Homo sapiens, UniProt P24387+Q13324); assay: activators of CRF receptor 2 with binding protein – uHTS hits, confirmation (AID 602473); assay type: functional; settings: read-out: EC50_Mean
T2 sequence (Q13324 whole entry): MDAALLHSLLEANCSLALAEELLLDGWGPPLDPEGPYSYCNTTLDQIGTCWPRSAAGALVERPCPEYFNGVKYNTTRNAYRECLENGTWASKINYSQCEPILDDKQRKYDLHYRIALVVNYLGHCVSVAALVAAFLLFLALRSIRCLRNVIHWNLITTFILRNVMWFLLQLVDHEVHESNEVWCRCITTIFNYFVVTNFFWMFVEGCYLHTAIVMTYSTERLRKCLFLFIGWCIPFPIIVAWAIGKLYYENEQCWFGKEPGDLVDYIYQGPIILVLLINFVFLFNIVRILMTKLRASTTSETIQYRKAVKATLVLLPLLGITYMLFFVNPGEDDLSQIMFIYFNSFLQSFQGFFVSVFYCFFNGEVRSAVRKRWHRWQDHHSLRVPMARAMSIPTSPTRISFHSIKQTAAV
T2 sequence (P24387 whole entry): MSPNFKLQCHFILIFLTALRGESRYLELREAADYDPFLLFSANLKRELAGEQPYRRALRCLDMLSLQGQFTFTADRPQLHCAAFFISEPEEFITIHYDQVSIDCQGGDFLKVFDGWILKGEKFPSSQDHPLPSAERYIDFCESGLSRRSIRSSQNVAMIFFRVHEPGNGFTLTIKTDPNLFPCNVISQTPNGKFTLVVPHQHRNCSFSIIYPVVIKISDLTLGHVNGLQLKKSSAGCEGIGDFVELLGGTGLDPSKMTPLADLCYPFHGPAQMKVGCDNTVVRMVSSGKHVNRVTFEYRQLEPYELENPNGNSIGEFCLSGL

[10] = blockers of HIV-1 ZM109 envelope-driven cell-cell fusion – HeLa effector, CEM target cells, luciferase, cherry-pick, dose response (AID 652058); assay type: functional, cell-based;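 further: luciferase signal from HIV-1 Env mediated cell-cell fusion of effector and target cells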
[11] = off-target signal loss in HeLa-CEM21 co-culture – HeLa F-luc CTL cells, cherry-picked, counter-screen for HIV-1 Env fusion inhibitor project, dose response (AID 652040); assay type: functional, cell-based;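 further: potency for signal decrease marking cytotoxic or nonspecific inhibition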
Protein Tat = molecular target: T3, Protein Tat (Human immunodeficiency virus type 1 group M subtype B (isolate HXB2)(HIV-1), UniProt P04608); assay type: functional;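 further: tat binding to TAR RNA read out by fluorescence polarization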
T3 sequence (P04608 whole entry): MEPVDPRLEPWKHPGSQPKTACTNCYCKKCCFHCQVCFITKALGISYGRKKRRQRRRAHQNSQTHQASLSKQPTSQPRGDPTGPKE

HEK293 = assay: EBV LMP1 TES2 canonical NF-kB signalling blockers – cell-based, HEK293, luciferase, cherry-pick, dose response (AID 588343); assay type: functional; settings: Homo sapiens
[12] = reduction of Shn3 3'UTR-driven luciferase in osteoblasts – cell-based, Clone20 osteoblasts, firefly luciferase, cherry-picked, dose response (AID 624132); assay type: functional;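 further: firefly luciferase luminescence from reporter carrying the Shn3 3'UTR in osteoblasts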
[13] = loss of viability in HepG2 cells – cell-based, CellTiter-Glo, cherry-picked, cytotoxicity control for Shn3 inhibitor project, dose response (AID 624134); assay type: functional
[14] = non-specific 3'UTR reporter inhibition in Clone20-Shn3RL – cell-based, Renilla luciferase, cherry-picked, counter-screen for Shn3 inhibitor project, dose response (AID 624133); assay type: functional
[15] = general mammalian cell viability loss – inhibitor set, cherry-pick, set 2, cytotoxicity control for miR-122 modulator project, dose response (AID 720697); assay type: functional, cell-based

CC(C)[C@H](N)C(=O)N[C@H]1CCC2C3CC=C4C[C@@H](O)CC[C@]4(C)C3CC[C@@]21C (stereo partly drawn)
EC50 [1]: > 91.2 µM (inactive) | EC50 [2]: > 91.2 µM (inactive)

C[C@H]1CN([C@@H](C)CO)C(=O)c2c(c3ccccc3n2C)-c2ccccc2CO[C@@H]1CN(C)C(=O)Cc1ccccc1
AC50 [3]: < 0.26 µM (active) | AC50 [4]: 27.4 µM (active) | AC50 [5]: < 0.26 µM (active) | AC50 [6]: 3.45 µM (active)

Cc1cccc(OC(=O)c2sc3ncn(C)c(=O)c3c2C)c1
EC50 [7]: > 120 µM (not active) | EC50 [8]: 2.85 µM (active) | EC50 (H4): 19.8 µM (active) | EC50 (Streptococcus): 7.36 µM (active) | IC50 (cells): 2.87 µM (active) | AC50 (HeLa): > 350 µM (inactive)

CC(=O)NC(C)C(=O)OCC(=O)Nc1ccc(Br)cc1 (stereo not drawn)
IC50 (Estrogen receptor): > 50 µM (not active)

CC1=CC(C)(C)N(C(=O)c2ccccc2)c2ccc(C)cc21
EC50 [9]: 6.89 µM (active) | AC50 [3]: 42.6 µM (active) | AC50 [10]: 7.28 µM (active) | AC50 [11]: 29.7 µM (active) | AC50 [5]: 42.2 µM (active)

CCCCN1C(=O)NC(=O)C2(Cc3ccccc3N3CCOCC32)C1=O (stereo not drawn)
IC50 (Protein Tat): > 100 µM (active)

CCCC(=O)NC(c1cccc([N+](=O)[O-])c1)c1ccc2cccnc2c1O (stereo not drawn)
AC50 (HEK293): 4.48 µM (active) | AC50 [12]: 1.75 µM (active) | AC50 [13]: 4.25 µM (active) | AC50 [14]: 3.55 µM (active)

O=C(NC1CCCC1)c1cc(-c2ccc(Cl)cc2Cl)on1
AC50 (HeLa): > 350 µM (inactive)

CN(C[C@H]1N[C@@H](CO)[C@H]1c1ccc(-c2ccccc2)cc1)C(=O)C1CCC1
AC50 [15]: 10.2 µM (active)

COc1cccc(C(=O)Nc2nnc(-c3ccccc3)s2)c1
AC50 (HeLa): 44.4 µM (active)

O=C(NNC(S)=Nc1ccc(F)cc1F)c1ccco1
EC50 [1]: > 91.2 µM (inactive) | EC50 [2]: > 91.2 µM (inactive)
